The results in this text go back to patent US8034791B2, “Activation of Egr-1 promoter by DNA damaging chemotherapeutics” (The University of Chicago, priority 2001, dated 2011).

Where a name gives a salt, the structure may show the parent alone.

For data set [1], the system named is PROb cells. Description: Preliminary in vitro TNF-α induction, PROb cells. The format is cell-based, rat. Particulars: PROb cells treated with Ad.TNF (100 MOI), 24 hrs; cisplatin 250 μM, doxorubicin 3 μM, 5-FU 20 mM, paclitaxel 14 μM. The protocol: (§1) In vitro measurement of TNF-α protein. PC-3 and PROb cells were plated in 96-well plates, grown overnight, and infected with Ad.Egr.TNF at 100 multiplicities of infection, incubated for three hrs, and were then treated with cisplatin (250 μM), doxorubicin (3 μM), 5-FU (20 mM) or paclitaxel (14 μM). Supernatants were harvested 24 hrs later and human TNF-α production was quantified by ELISA. Experiments were performed in quintuplicate.

Data set [2] relates to PC-3 xenografts. It counts as in vivo, athymic nude mice. Particulars: vector + IP agent days 1 and 2, cisplatin 9, cyclophosphamide 160, doxorubicin 15, 5-FU 100, gemcitabine 500 mg/kg. As to the method: (§2) Saline or chemotherapeutic agents administered IP on days 1 and 2, including 9 mg/kg cisplatin, 160 mg/kg cyclophosphamide, 15 mg/kg doxorubicin, 100 mg/kg 5-FU and 500 mg/kg gemcitabine. Animals were euthanized, and xenografts were harvested 24 hrs after the second IP injection. Xenografts were snap-frozen in liquid nitrogen and homogenized in RIPA buffer (150 mM NaCl, 10 mM Tris pH 7.5, 5 mM EDTA pH 7.5, 100 mM PMSF, 1 µg/ml leupeptin and 2 μg/ml aprotinin) using a Brinkman Polytron homogenizer (Kinematica AG, Lucerne, Switzerland). After three freeze-thaw lysis cycles, the homogenate was centrifuged at 7800×g in a Sorvall RC-5C SS34 rotor (Kendro Laboratory Products, Newtown, Conn.) for 10 min at 4° C. TNF-α levels in the supernatants were measured by ELISA as described above.

Data set [3] deals with PROb xenografts. It counts as in vivo, nude mice. Particulars: IT vector 5×10^9 p.u. + IP agent vs vector plus NS, cisplatin 9, cyclophosphamide 160, doxorubicin 15, 5-FU 100, gemcitabine 500 mg/kg. As to the method:
(§3) In vivo measurement of TNF-α protein. PC-3 (1×10^7 cells) or PROb cells (5×10^6) in 100 μl PBS were injected subcutaneously into the right hind limb of nude mice. Tumor-bearing mice received IT Ad.Egr.TNF (5×10^9 p.u. in 10 μl) with 250 μl of complete media with NS or a chemotherapeutic agent, including cisplatin (9 mg/kg), cyclophosphamide (160 mg/kg), doxorubicin (15 mg/kg), 5-fluorouracil (100 mg/kg) and gemcitabine (500 mg/kg). Each mouse IP injections were administered 20 hrs after transfection, and two consecutive IT and IP injections were given. Animals were euthanized, and xenografts were harvested 48 hrs after the second IP injection. Xenografts were snap-frozen in liquid nitrogen and homogenized in RIPA buffer (150 mM NaCl, 10 mM Tris at pH 7.5, 5 mM EDTA at pH 7.5, 100 mM PMSF, 1 μg/ml leupeptin and 2 μg/ml aprotinin). After three freeze-thaw lysis cycles, the homogenate was centrifuged for 10 minutes at 4° C. TNF-α levels in the supernatants were measured as described above.

The test system of data set [4] is PC-3 xenografts. The format is in vivo, nude mice. The settings on record: IT vector 5×10^9 p.u. + IP agent vs vector and NS, cisplatin 9, cyclophosphamide 160, doxorubicin 15, 5-FU 100 mg/kg. As to the method: as §3
The test system of data set [5] is PROb cells. Description: Chemo-inducibility of Ad.Egr-TNF.11D in vitro, PROb cells. The format is cell-based, rat. The settings on record: vector-infected PROb cells, 24 hrs; cisplatin 250 μM, doxorubicin 3 μM, 5-FU 100 mM, gemcitabine 3 mM, paclitaxel 14 μM. The protocol:
(§4) PC-3 and PROb cells were plated, infected with Ad.Egr.TNF, and incubated as discussed above. After incubation, 200 μl of CM, with or without chemotherapeutic agents, including cisplatin (250 μM), doxorubicin (3 μM), 5-fluorouracil (100 mM), gemcitabine (3 mM) and paclitaxel (14 μM) were added. Conditioned medium was harvested 24 hrs. later, and TNF-α concentration was measured (Quantikine Human TNF-α ELISA kit, R & D Systems, Minneapolis, Minn.).

In data set [6] the test system is PC-3 cells. Description: Chemo-sensitivity by MTS assay, PC-3 cells. It counts as cell-based, human. The settings on record: PC-3, Ad.Egr-TNF.11D and chemotherapy 24 hrs. The protocol: (§5) Chemo-sensitivity of PC-3 and PROb cells as determined by MTS assay. PC-3 and PROb cells were plated at a density of 10^5 cells/100 μl medium in 96-well tissue culture plates and incubated overnight. […] After incubation, 200 μl of complete media, with or without chemotherapeutic agents, was added. Chemotherapeutic agents used were at final concentrations of cisplatin at 46 and 460 μM, doxorubicin at 3 and 300 μM, 5-fluorouracil at 2 and 200 mM and paclitaxel at 1.4 and 140 μM. Media was removed 24 hrs later and each well was rinsed with 200 μl of complete media (CM) and aspirated. 100 μl of CM was then added with 20 μl of CellTiter 96® Aqueous One Solution Cell Proliferation Assay solution (Promega, Madison, Wis.), and the cells were allowed to incubate for 1 hr. Absorbance was measured at 490-650 nm.
In general terms: Tetrazolium assays rely on reduction of a dye to a coloured formazan, in cell work by metabolically active cells.

For data set [7], the system named is PC-3 cells. Description: Preliminary in vitro TNF-α induction, PC-3 cells. It counts as cell-based, human. The settings on record: vector treated PC-3 cells (100 MOI), 24 hrs; cisplatin 250 μM, doxorubicin 3 μM, 5-FU 20 mM, paclitaxel 14 μM. The protocol:
as §1

Data set [8] has as its system PROb xenografts. Particulars: PROb xenografts, vector + IP agent vs vector alone; cisplatin 9, cyclophosphamide 160, doxorubicin 15, 5-FU 100, gemcitabine 500 mg/kg. As to the method: as §2
Data set [9] deals with PC-3 cells. Description: Chemo-inducibility of Ad.Egr-TNF.11D in vitro, PC-3 cells. The settings on record: PC-3 cells, doses used in the chemo-induction experiments (3 μM). As to the method: as §4
For data set [10], the system named is PROb cells. Description: Chemo-sensitivity by MTS assay, PROb cells. The format is cell-based, rat. Particulars: Ad.Egr-TNF.11D and chemotherapy 24 hrs. The protocol: as §5
For data set [11], the system named is PROb xenografts. Put plainly: Xenograft regrowth study, PROb. It counts as in vivo, athymic nude mice. The settings on record: day 27, among control, doxorubicin alone and vector alone. The protocol:
Xenograft regrowth studies. […] On days 0 and 3, mice received IT injection of 10 μl of either 5×10^9 p.u. […] IP injections of doxorubicin or NS (2 mg/kg) were administered daily from days 0 through 8. Xenografts were measured twice weekly and tumor volume was calculated according to the formula (length×width×thickness)/2. Fractional tumor volumes (V/V0 where V0=volume on day 0) were calculated and plotted.

The subject of data set [12] is PC-3 xenografts. Description: Xenograft regrowth study, PC-3. The format is in vivo, athymic nude mice. As to the method: Xenograft regrowth studies. Treatment was initiated on day 0 at which time mice were assigned to one of 4 treatment groups: control, doxorubicin, Ad.Egr-TNF.11D, and combination of Ad.Egr-TNF.11D and doxorubicin. On days 0 and 3, mice received IT injection of 10 μl of either 5×10^9 p.u. Ad.Egr-TNF.11D, or 10 μl of viral formulation buffer. IP injections of doxorubicin or NS (2 mg/kg) were administered daily from days 0 through 8. Xenografts were measured twice weekly and tumor volume was calculated according to the formula (length×width×thickness)/2. Fractional tumor volumes (V/V0 where V0=volume on day 0) were calculated and plotted.

The subject of data set [13] is PC-3 xenografts. Description: Analysis of microvessel density (anti-CD31), PC-3 xenografts. Particulars: day 27, anti-CD31. It counts as in vivo, athymic nude mice.
Procedure: Two or three xenografts from each treatment group in the PC-3 regrowth study above were collected and fixed in 10% neutral buffered formalin, embedded in paraffin, cut in 5 μm slices, mounted, baked, cleared in xylene, and rehydrated in decreasing alcohol concentrations (100%-70%) and distilled water. Sections were microwaved in 10 mM citrate buffer at pH 6.0 for 18 min, washed and soaked in 1% hydrogen peroxide/methanol for 20 min prior to blocking with avidin-biotin (Vector Laboratories, Burlingame, Calif.) for 15 min. Slides were incubated with biotin (15 min), washed and blocked with serum-free DAKO protein (DAKO, Carpinteria, Calif.) for 10 min prior to incubation with a 1:50 dilution of goat anti-mouse CD31 antibody (Santa Cruz, Santa Cruz, Calif.) for 60 min at RT. CD-31 staining was visualized on tissue sections following incubation with DAKO biotinylated anti-goat secondary antibody for 30 min and DAB reagent (Vector) for 60 sec. Sections were counterstained with Gill 3 hematoxylin and dehydrated in ethanol (95%-100%) and xylene prior to mounting. All slides were read by an investigator blinded to the treatment groups. Positively stained vessels were counted in 5-10 high power fields (×400) per slide using light microscopy. Blood vessels were identified by endothelial cell staining and by endothelial cells surrounding intraluminal erythrocytes. […]
Where [14] appears, read: higher concentration: cisplatin 460 μM, doxorubicin 300 μM, 5-FU 200 mM, taxol 140 μM.
The mark [15] stands for this setting: lower concentration: cisplatin 46 μM, doxorubicin 3 μM, 5-FU 2 mM, taxol 1.4 μM.

With `COc1cccc2c1C(=O)c1c(O)c3c(c(O)c1C2=O)C[C@@](O)(C(=O)CO)C[C@@H]3O[C@H]1C[C@H](N)[C@H](O)[C@H](C)O1` [doxorubicin, doxorubicin hydrochloride], the “increased TNF levels” value in data set [1] came to 7.3 fold; in data set [7] it was 14.5 fold. Besides, the entries for the “increase in TNF-α levels” value in data set [2] and in [5] were 4.2 fold and 7.4 fold, respectively. Moreover, in data set [3], the “increased TNF-α levels” value worked out at 2.5 fold. The “induced TNF-α” value in data set [4] came out at 3.1 fold. Besides, the surviving fraction stood at 30% in data set [6] (setting [14]), 90% in data set [6] (setting [15]), 85% in [10] (setting [14]) and 100% in data set [10] (setting [15]). For the same compound, in [8], the “induction of TNF-α protein” value was 2.3 fold. The toxicity to cells result in data set [9] is listed as “toxic at the doses used”. The tumor growth delay result in data set [11] is reported as “no difference in tumor growth delay”. The tumor growth in [12] (PC-3 xenografts, day 23, doxorubicin 2 mg/kg IP daily) is given as 3 fold. Moreover, in [12] (xenograft regrowth studies in nude mice), the “systemic toxicity, including weight loss and deaths” value is “Systemic toxicity, including weight loss and deaths, was observed”. In addition, the “number of vessels per high power field” value in data set [13] is 6.24±0.35.
